Values quoted from earlier work in patent US7994325B2, “CGRP receptor antagonists” (Merck Sharp & Dohme Corp., priority 2005, dated 2011).
Ends that are not written are not given here.

Key:
CGRP receptors [1] = conditions: intravenously administered (Olesen et al. 2004)
CGRP receptors [2] = conditions: marmoset (Doods et al. 2000)
CGRP receptors [3] = conditions: rats, prior administration (Williamson et al. 1997)
CGRP receptors [4] = conditions: rat (Escott et al. 1995)

NCCCC[C@H](NC(=O)[C@@H](Cc1cc(Br)c(O)c(Br)c1)NC(=O)N1CCC(N2Cc3ccccc3NC2=O)CC1)C(=O)N1CCN(c2ccncc2)CC1 [BIBN4096BS]
clinical efficacy and safety in migraine (CGRP receptors [1]): safe and effective acute treatment for migraine | effect on increase in facial blood flow (CGRP receptors [2]): blocked

CGRP(8-37): "a fragment of CGRP that lacks seven N-terminal amino acid residues, is a selective antagonist of CGRP1"; "a peptide CGRP antagonist" (VTHRLAGLLSRSGGVVKNNFVPTNVGSKAF; ends and bridges not checked; UniProt P06881 90-119, looked up, fragment)
effect on increase in diameter of the middle meningeal artery (CGRP receptors [3]): blocked | effect on increased facial blood flow (CGRP receptors [4]): inhibited
